Reference: paper PMC9309159, “Identification of heptapeptides targeting a lethal bacterial strain in septic mice through an integrative approach” (Signal Transduction and Targeted Therapy, 2022)

How the values were obtained:
[1] = tested on: HMGB1; assay: HMGB1 quantitation in serum of septic mice (ELISA); assay type: in vivo, C57BL/6 mice; settings: peptide by tail vein 1 h after bacterial injection; serum ELISA at 12 h; n = 8
From the text: (§1) Wild-type C57 mice were intraperitoneally injected with MSI001 bacteria (6 × 10^6 CFU/g body weight) to reproduce a sepsis model. […] Normal saline (NS) was used as control. […] One hour after CLP modeling, the mice were intravenously injected with LL37 or VTK-LL37 peptide at a dosage of 0.2 nmol/g body weight. Equal volume of normal saline (NS) was used as control. […] The mice were intraperitoneally injected with MSI001 bacteria. One hour later, the mice were subjected to tail vein injection (TVI) with VTK-LL37 (VTK-LL37 group), LL37 (LL37 group) or an equivalent volume of NS (sepsis group). Wild-type mice without modeling were used as controls (control group). The blood bacteria were quantitated as colony forming units (CFU) 12 h after injection of bacteria. n = 8. *P < 0.05, compared to control; ^#P < 0.05, compared to sepsis group^; ΔP < 0.05, compared to LL37 group. Results are expressed as the median with range. d Suppression of VTK-LL37 on the production of HMGB1 in the blood of septic mice. […] Twelve hours after bacterial injection, HMGB1 in the serum was quantitated by ELISA. n = 8. *P < 0.05, compared to control; ^#P < 0.05, compared to sepsis group; ^ΔP < 0.05, compared to LL37 group^. Results are expressed as the mean ± SD. e, f Protective effect of VTK-LL37 against organ damage in mice subjected to bacterial injection. […]

[2] = tested on: CLP mice; assay: Survival of CLP mice; assay type: in vivo, C57BL/6 mice; settings: peptide 0.2 nmol/g i.v. 1 h after CLP; observed up to 168 h; Kaplan-Meier; n = 15
From the text: as §1

[3] = tested on: MSI001-Amp^r bacteria; assay: Growth of ampicillin-resistant MSI001 bacteria; assay type: cell-based, Escherichia coli; settings: 1×10^3 CFU/ml, peptide 1 μmol/L, 37°C, 3 hours, colony count, n=3
Protocol: Pseudomonas aeruginosa (ATCC27853) was purchased from American Type Culture Collection (ATCC) and cultured in Luria Broth (LB) medium with shaking at 37 °C. For construction of ampicillin-resistant MSI001 strain (MSI001-Amp^r), the pET14b plasmid carrying Amp^r marker gene was introduced into the wild type MSI001 strain. The MSI001-Amp^r strain was cultured in LB medium supplemented with Ampicillin of 100 µg/ml at 37 °C.
Figure S4. Inhibitory effect of LL37 and VTK-LL37 fusion peptides on bacterial growth. a Effect of VTK-LL37 on the growth of Ampicillin resistant (Amp^r) MSI001 bacteria. The bacterial strain MSI001 was transfected with pET14b plasmid to produce an Ampicillin resistant (Amp^r) MSI001 strain. The VTK-LL37 or LL37 peptide was added to the cultured MSI001-Amp^r bacteria (1×10^3 CFU/ml) with a final concentration of 1 μmol/L. After incubation with the VTK-LL37 or LL37 peptides at 37°C for 3 hours, bacterial colonies were counted. b Effect of VTK-LL37 on the growth of Pseudomonas aeruginosa. The bacterial colonies of Pseudomonas aeruginosa were counted as above. […]

For “CVTKLGSLCVPGVGLLGDFFRKSKEKIGKEFKRIVQRIKDFLRNLVPRTES [VTK-LL37]”, the “production of HMGB1 in serum of septic mice” value [1] was “significantly suppressed the production of HMGB1 in the serum of septic mice, which was superior to LL37”, the “survival of CLP mice” value [2] was “significantly increased the survival of sepsis mice induced by CLP modeling” and the “inhibitive effect on growth of ampicillin-resistant MSI001” value [3] was “more significant inhibitive effect on the bacterial growth of the ampicillin-resistant MSI001 bacteria in comparison with LL37”.
